# Biological target: human TRPA1 (Homo sapiens (Human), UniProt O75762)
# Test: In vitro inhibition of human TRPA1, whole cell patch configuration
# Assay type: cell-based
# Conditions: current activation 10 μM AITC, tested concentrations 320 pM to 3.2 μM, read-out: hTRPA1 IC50
# Protocol: All currents were recorded in whole-cell configuration using EPC-9 and EPC-10 amplifiers and Patchmaster software (HEKA) or similar. […] The standard bath solution contained 150 mM NaCl, 10 mM HEPES, 10 mM glucose, 4.5 mM KCl, 1 mM EGTA, 3 mM MgCl2, with pH adjusted to 7.4 with NaOH. In some instances, 2 mM CaCl2 was added in place of EGTA and the concentration of MgCl2 was reduced to 1 mM.
# Data were collected either by continuous recordings at −60 mV or by applying voltage ramps from a holding potential of −40 mV every 4 s. Continuous recordings were collected at 400 Hz and digitally filtered off-line at 10 Hz for presentation. Voltage ramps were applied from −100 mV or −80 mV to +100 mV or +80 mV over the course of 400 ms, and data were collected at 10 kHz and filtered at 2.9 kHz. Inward and outward currents were analyzed from the ramps at −80 and 80 mV, respectively. Liquid junction potential correction was not used.
# Solutions were switched using a gravity-fed continuous focal perfusion system. To achieve rapid temperature changes, two temperature control, and perfusion systems were employed simultaneously. […] Temperatures were confirmed using a thermistor (Warner Instruments, TA-29), with temperatures at the recorded cell estimated to be within +/−2° C. of those reported.
# The antagonist effects of compounds of Formula (I) against human TRPA1 (“hTRPA1”) in a whole cell patch configuration were evaluated using the in vitro assay described above.
# Sequence of human TRPA1 (O75762 whole entry): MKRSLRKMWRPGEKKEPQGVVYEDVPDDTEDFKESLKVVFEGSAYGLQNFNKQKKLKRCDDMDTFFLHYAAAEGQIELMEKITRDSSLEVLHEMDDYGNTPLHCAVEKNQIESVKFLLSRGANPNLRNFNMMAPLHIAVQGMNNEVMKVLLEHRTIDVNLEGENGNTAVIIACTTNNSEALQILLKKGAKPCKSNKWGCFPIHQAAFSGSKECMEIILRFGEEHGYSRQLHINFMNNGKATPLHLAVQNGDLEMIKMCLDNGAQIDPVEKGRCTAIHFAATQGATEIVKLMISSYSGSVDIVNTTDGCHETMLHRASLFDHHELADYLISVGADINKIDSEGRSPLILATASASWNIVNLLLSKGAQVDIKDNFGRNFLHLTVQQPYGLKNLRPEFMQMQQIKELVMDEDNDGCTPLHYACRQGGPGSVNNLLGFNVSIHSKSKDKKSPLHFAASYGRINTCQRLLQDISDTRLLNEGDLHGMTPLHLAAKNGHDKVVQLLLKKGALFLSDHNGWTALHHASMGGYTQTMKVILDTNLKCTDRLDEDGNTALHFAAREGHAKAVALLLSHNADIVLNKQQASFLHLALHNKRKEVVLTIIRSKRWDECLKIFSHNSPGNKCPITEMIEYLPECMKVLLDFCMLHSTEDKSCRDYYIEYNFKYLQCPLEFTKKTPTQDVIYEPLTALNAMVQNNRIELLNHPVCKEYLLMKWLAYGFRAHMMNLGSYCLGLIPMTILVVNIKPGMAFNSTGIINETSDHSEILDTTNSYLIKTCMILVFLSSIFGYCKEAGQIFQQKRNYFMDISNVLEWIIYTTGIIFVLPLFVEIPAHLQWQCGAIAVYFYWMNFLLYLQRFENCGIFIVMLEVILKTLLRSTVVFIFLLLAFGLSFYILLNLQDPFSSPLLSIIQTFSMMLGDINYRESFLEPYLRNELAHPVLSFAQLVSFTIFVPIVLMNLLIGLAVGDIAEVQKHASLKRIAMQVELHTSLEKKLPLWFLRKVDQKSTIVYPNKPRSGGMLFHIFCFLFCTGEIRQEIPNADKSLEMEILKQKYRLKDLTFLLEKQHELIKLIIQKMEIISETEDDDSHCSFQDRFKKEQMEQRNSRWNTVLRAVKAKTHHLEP
row,Compound,IC50 [nM]
1,"C[C@@H](C(=O)Nc1cccc(-c2ccc(C(F)(F)F)nc2)n1)n1cnc2c1c(=O)n(Cc1ccccn1)c(=O)n2C [Compound 1, (2S)-2-(3-methyl-2,6-dioxo-1-(pyridin-2-ylmethyl)-1,2,3,6-tetrahydropurin-7-yl)-N-(6-(6-(trifluoromethyl)pyridin-3-yl)pyridin-2-yl)propanamide]",28
2,"CC(=O)Cn1c(=O)c2c(ncn2[C@@H](C)C(=O)Nc2cccc(-c3ccc(C(F)(F)F)nc3)n2)n(C)c1=O [Compound 2, (S)-2-(3-methyl-2,6-dioxo-1-(2-oxopropyl)-2,3-dihydro-1H-purin-7(6H)-yl)-N-(6′-(trifluoromethyl)-[2,3′-bipyridin]-6-yl)propanamide]",21
3,"CC(=O)Cn1c(=O)c2c(ncn2[C@@H](C)C(=O)Nc2cncc(-c3ccc(C(F)(F)F)nc3)n2)n(C)c1=O [Compound 3, (S)-2-(3-methyl-2,6-dioxo-1-(2-oxopropyl)-2,3-dihydro-1H-purin-7(6H)-yl)-N-(6-(6-(trifluoromethyl)pyridin-3-yl)pyrazin-2-yl)propanamide]",49
4,"CC(=O)Cn1c(=O)c2c(ncn2[C@@H](C)C(=O)Nc2cccc(-c3cnc(C(F)(F)F)nc3)n2)n(C)c1=O [Compound 4, (S)-2-(3-methyl-2,6-dioxo-1-(2-oxopropyl)-2,3-dihydro-1H-purin-7(6H)-yl)-N-(6-(2-(trifluoromethyl)pyrimidin-5-yl)pyridin-2-yl)propanamide]",25
5,"C[C@@H](C(=O)Nc1cccc(-c2cnc(C(F)(F)F)nc2)n1)n1cnc2c1c(=O)n(Cc1ccccn1)c(=O)n2C [Compound 5, (S)-2-(3-methyl-2,6-dioxo-1-(pyridin-2-ylmethyl)-2,3-dihydro-1H-purin-7(6H)-yl)-N-(6-(2-(trifluoromethyl)pyrimidin-5-yl)pyridin-2-yl)propanamide]",39
6,"CC(=O)Cn1c(=O)c2c(ncn2[C@@H](C)C(=O)Nc2cncc(-c3cnc(C(F)(F)F)nc3)n2)n(C)c1=O [Compound 6, (S)-2-(3-methyl-2,6-dioxo-1-(2-oxopropyl)-2,3-dihydro-1H-purin-7(6H)-yl)-N-(6-(2-(trifluoromethyl)pyrimidin-5-yl)pyrazin-2-yl)propanamide]",39
7,"C[C@@H](C(=O)Nc1cncc(-c2cnc(C(F)(F)F)nc2)n1)n1cnc2c1c(=O)n(Cc1ccccn1)c(=O)n2C [Compound 8, (S)-2-(3-methyl-2,6-dioxo-1-(pyridin-2-ylmethyl)-2,3-dihydro-1H-purin-7(6H)-yl)-N-(6-(2-(trifluoromethyl)pyrimidin-5-yl)pyrazin-2-yl)propanamide]",44
8,"C[C@@H](C(=O)Nc1cncc(-c2ccc(C(F)(F)F)nc2)n1)n1cnc2c1c(=O)n(Cc1ccccn1)c(=O)n2C [Compound 9, (2S)-2-(3-methyl-2,6-dioxo-1-(pyridin-2-ylmethyl)-1,2,3,6-tetrahydropurin-7-yl)-N-(6-(6-(trifluoromethyl)pyridin-3-yl)pyrazin-2-yl)propanamide]",59
9,"CC(C(=O)Nc1cccc(-c2cnc(C(F)(F)F)nc2)n1)n1cnc2c1c(=O)n(CC#N)c(=O)n2C (centres unmarked) [Compound 10, 2-(1-(cyanomethyl)-3-methyl-2,6-dioxo-2,3-dihydro-1H-purin-7(6H)-yl)-N-(6-(2-(trifluoromethyl)pyrimidin-5-yl)pyridin-2-yl)propanamide]",24
10,"CCC(=O)Cn1c(=O)c2c(ncn2[C@@H](C)C(=O)Nc2cncc(-c3cnc(N4CC5CC5C4)nc3)n2)n(C)c1=O (stereo partly drawn) [Compound 13, (2S)—N-(6-(2-(3-azabicyclo[3.1.0]hexan-3-yl)pyrimidin-5-yl)pyrazin-2-yl)-2-(3-methyl-2,6-dioxo-1-(2-oxobutyl)-2,3-dihydro-1H-purin-7(6H)-yl)propanamide]",8
11,"CCC(=O)Cn1c(=O)c2c(ncn2C(C)C(=O)Nc2ccnc(-c3cnc(N4CC5CC5C4)nc3)n2)n(C)c1=O (centres unmarked) [Compound 17, N-(2′-(3-azabicyclo[3.1.0]hexan-3-yl)-2,5′-bipyrimidin-4-yl)-2-(3-methyl-2,6-dioxo-1-(2-oxobutyl)-2,3-dihydro-1H-purin-7(6H)-yl)propanamide]",8
12,"C[C@@H](C(=O)Nc1cncc(-c2cnc(C(F)(F)F)nc2)n1)n1cnc2c1c(=O)n(CC#N)c(=O)n2C [Compound 22, (S)-2-(1-(cyanomethyl)-3-methyl-2,6-dioxo-2,3-dihydro-1H-purin-7(6H)-yl)-N-(6-(2-(trifluoromethyl)pyrimidin-5-yl)pyrazin-2-yl)propanamide]",203
13,"CC(C(=O)Nc1ccnc(-c2cnc(N3CC4CC4C3)nc2)n1)n1cnc2c1c(=O)n(CC#N)c(=O)n2C (centres unmarked) [Compound 24, N-(2′-(3-azabicyclo[3.1.0]hexan-3-yl)-2,5′-bipyrimidin-4-yl)-2-(1-(cyanomethyl)-3-methyl-2,6-dioxo-2,3-dihydro-1H-purin-7(6H)-yl)propanamide]",10
14,"CC(=O)Cn1c(=O)c2c(ncn2[C@@H](C)C(=O)Nc2csc(-c3cnc(C(F)(F)F)nc3)n2)n(C)c1=O [Compound 31, (S)-2-(3-methyl-2,6-dioxo-1-(2-oxopropyl)-2,3-dihydro-1H-purin-7(6H)-yl)-N-(2-(2-(trifluoromethyl)pyrimidin-5-yl)thiazol-4-yl)propanamide]",16

# Compounds with a lower IC50, results first:
row,IC50 [nM],Compound
1,7,C[C@@H](C(=O)Nc1cncc(-c2cnc(N3CC4CC4C3)nc2)n1)n1cnc2c1c(=O)n(CC#N)c(=O)n2C (some centres unmarked) [Compound 12]
2,5,"C[C@@H](C(=O)Nc1cccc(-c2cnc(N3CC4CC4C3)nc2)n1)n1cnc2c1c(=O)n(CC#N)c(=O)n2C (stereo partly drawn) [Compound 11, (2S)—N-(6-(2-(3-azabicyclo[3.1.0]hexan-3-yl)pyrimidin-5-yl)pyridin-2-yl)-2-(1-(cyanomethyl)-3-methyl-2,6-dioxo-2,3-dihydro-1H-purin-7(6H)-yl)propanamide]"
3,5,Cc1cc(Cn2c(=O)c3c(ncn3[C@@H](C)C(=O)Nc3cccc(-c4ccc(C(F)(F)F)cc4)n3)n(C)c2=O)no1 [Compound 23]
4,3,"C[C@@H](C(=O)Nc1cccc(-c2cnc(N3CC4C(C3)C4(F)F)nc2)n1)n1cnc2c1c(=O)n(CC#N)c(=O)n2C (stereo partly drawn) [Compound 30, (2S)-2-(1-(cyanomethyl)-3-methyl-2,6-dioxo-2,3-dihydro-1H-purin-7(6H)-yl)-N-(6-(2-(6,6-difluoro-3-azabicyclo[3.1.0]hexan-3-yl)pyrimidin-5-yl)pyridin-2-yl)propanamide]"
5,3,"Cc1cc(Cn2c(=O)c3c(ncn3[C@@H](C)C(=O)Nc3csc(-c4cnc(C(F)(F)F)nc4)n3)n(C)c2=O)no1 [Compound 32, (S)-2-(3-methyl-1-((5-methylisoxazol-3-yl)methyl)-2,6-dioxo-2,3-dihydro-1H-purin-7(6H)-yl)-N-(2-(2-(trifluoromethyl)pyrimidin-5-yl)thiazol-4-yl)propanamide]"
6,2,"CC(=O)Cn1c(=O)c2c(ncn2[C@@H](C)C(=O)Nc2csc(-c3cnc(N4CCC[C@H]4C(F)(F)F)nc3)n2)n(C)c1=O [Compound 16, (S)-2-(3-methyl-2,6-dioxo-1-(2-oxopropyl)-2,3-dihydro-1H-purin-7(6H)-yl)-N-(2-(2-((S)-2-(trifluoromethyl)pyrrolidin-1-yl)pyrimidin-5-yl)thiazol-4-yl)propanamide]"
7,2,"CC(=O)Cn1c(=O)c2c(ncn2[C@@H](C)C(=O)Nc2csc(-c3ccc(Cl)c(Cl)c3)n2)n(C)c1=O [Compound 20, (S)—N-(2-(3,4-dichlorophenyl)thiazol-4-yl)-2-(3-methyl-2,6-dioxo-1-(2-oxopropyl)-2,3-dihydro-1H-purin-7(6H)-yl)propanamide]"
8,2,"CCN(CC)c1ncc(-c2cccc(NC(=O)[C@H](C)n3cnc4c3c(=O)n(Cc3cc(C)on3)c(=O)n4C)n2)cn1 [Compound 27, (S)—N-(6-(2-(diethylamino)pyrimidin-5-yl)pyridin-2-yl)-2-(3-methyl-1-((5-methylisoxazol-3-yl)methyl)-2,6-dioxo-2,3-dihydro-1H-purin-7(6H)-yl)propanamide]"
9,1,"CCC(=O)Cn1c(=O)c2c(ncn2[C@@H](C)C(=O)Nc2cccc(-c3cnc(N4CC5C(C4)C5(F)F)nc3)n2)n(C)c1=O (stereo partly drawn) [Compound 26, (2S)—N-(6-(2-(6,6-difluoro-3-azabicyclo[3.1.0]hexan-3-yl)pyrimidin-5-yl)pyridin-2-yl)-2-(3-methyl-2,6-dioxo-1-(2-oxobutyl)-2,3-dihydro-1H-purin-7(6H)-yl)propanamide]"
10,1,"C[C@@H](C(=O)Nc1csc(-c2cnc(N3CCC[C@H]3C(F)(F)F)nc2)n1)n1cnc2c1c(=O)n(CC#N)c(=O)n2C [Compound 28, (S)-2-(1-(cyanomethyl)-3-methyl-2,6-dioxo-2,3-dihydro-1H-purin-7(6H)-yl)-N-(2-(2-((S)-2-(trifluoromethyl)pyrrolidin-1-yl)pyrimidin-5-yl)thiazol-4-yl)propanamide]"
11,1,"C[C@@H](C(=O)Nc1csc(-c2ccc(Cl)c(Cl)c2)n1)n1cnc2c1c(=O)n(CC#N)c(=O)n2C [Compound 29, (S)-2-(1-(cyanomethyl)-3-methyl-2,6-dioxo-2,3-dihydro-1H-purin-7(6H)-yl)-N-(2-(3,4-dichlorophenyl)thiazol-4-yl)propanamide]"
12,1,CCC(=O)Cn1c(=O)c2c(ncn2[C@@H](C)C(=O)Nc2csc(-c3ccc(N4CC5CC5C4)nc3)n2)n(C)c1=O (some centres unmarked) [Compound 33]

# From US10221177B2 (HYDRA BIOSCIENCES, INC., priority 2014, dated 2019)
